Patent US12201632B2, “Levoketoconazole for treatment of congenital adrenal hyperplasia and primary aldosteronism” (Strongbridge Dublin Limited, priority 2018, dated 2025)
Read-outs that look alike come from different tables or passages of the source.

Experiments:
HAC15 cells = experiment: Cortisol production by HAC15 cells (immunoassay); type: cell-based, Human; settings: HAC15, after 3 days of treatment (FIG. 1B)
Procedure: Human adrenocortical carcinoma HAC15 and mouse corticotroph AtT20 cells were used, purchased as a kind gift by Dr. W. Rainey, and obtained from Dr. J. Tooze (European Organization for Molecular Biology), respectively. Both cell lines were cultured in 75 cm^2 flasks at 37° C. in a humidified incubator (Greiner Bio-One, Alphen a/d Rijn, the Netherlands) at 5% CO2. Dulbecco's Modified Eagle Medium F12 containing 5% fetal calf serum was used for HAC15, whereas AtT20 cells were cultured in Dulbecco's minimal essential medium (DMEM) supplemented with 10% fetal calf serum. Both mediums were supplemented with L-glutamine (2 mmol/L) and penicillin (10^5 U/L). Short tandem repeat (str) profiling using a Powerplex Kit (Promega, Leiden, the Netherlands) of HAC15 and AtT20 gave results consistent with the ATCC database, confirming the identity of both cell lines. Medium and supplements were obtained from Invitrogen, Breda, the Netherlands. Once a week, cells were harvested with trypsin (0.05%)-EDTA (0.53 mM) and resuspended in culture medium. Levoketoconazole (COR-003) and racemic ketoconazole (both from Cortendo AB) were dissolved in absolute ethanol (EtOH), according to manufacturer's instructions, and stored at −20° C. at a stock concentration of […]. At the start of each experiment, both drugs were freshly prepared and diluted in EtOH in the correct concentrations. Synacten (synthetic ACTH, Novartis Pharma A.G.) stock concentration was stored at 4° C. and dissolved in culture medium at the day of use. The final concentrations of ACTH were chosen based on a dose-response curve in HAC15 cells and previously reported studies in the literature. For HAC15, 200,000 and 100,000 cells were plated in 0.5 ml medium in 24 well plates for experiments of 1 and 3 days, respectively. […]
Cortisol concentrations were measured in the supernatant using a chemiluminescence immunoassay system (Immulite 2000XPi; Siemens DPC Inc., Los Angeles, Calif., USA). In addition, we carried out multi-steroid analysis by liquid chromatography/mass spectrometry (LC/MS-MS) to accurately quantify androstenedione, corticosterone, cortisol, 11-deoxycortisol, DHEA, DHEAS, progesterone, 17-hydroxyprogesterone, and testosterone. […] Steroids were quantified with respect to a calibration series, with internal standards. Steroids were quantified on a Xevo TQS LC-MS/MS (Waters Chromatography).
Statistical analysis was performed using Graphpad Prism 6.0 (Graphpad Software, San Diego, CA). […] Effects of both compounds on the steroid profile were measured as absolute change compared to control and compared using the Student's t-test. When assessing differences between effects of both compounds, the percentage change was evaluated and compared in order to correct for differences in the vehicle treated control cells. […]

[1] = test system: EAS associated adrenal hyperplasia cultures; experiment: Cortisol production in primary EAS associated adrenal hyperplasia cultures; type: cell-based, human
Procedure: (§1) To obtain primary cultures, adrenal specimens (adrenocortical adenomas, adrenal hyperplasias and adrenocortical carcinomas) were collected after adrenalectomy at the department of Surgery, Erasmus University Medical Center, Rotterdam, the Netherlands, between April 2016 and May 2018. The study was conducted under guidelines that have been approved by the Medical Ethics Committee of the Erasmus Medical Center and informed consent was obtained from all patients. Immediately after surgery, specimens were minced into small pieces of 2-3 mm^3, washed in culture medium and centrifuged for 5 minutes at 600 g. The tissue was stored overnight in culture medium at 4° C., where after the tissue was centrifuged again and the supernatant was removed. Fragments were dissociated using 10-25 ml collagenase type 1 (2 mg/ml: Sigma-Aldrich), followed by incubation at 37° C. for up to two hours. Ficoll (GE healthcare) density gradient separation was used once or twice as required in order to separate contaminating red blood cells from the tumor cells. Cell viability and cell amount were counted by trypan blue exclusion. Dissociated cells were plated at a density of 10^5 cells per well. ACTH-secreting corticotroph pituitary adenoma tissue from patients with Cushing's disease (n=2) was available after transsphenoidal surgery. Single-cell suspensions of the pituitary adenoma tissues were prepared as previously described in detail.
Owing to a limited number of cells obtained from the specimens, not all experiments were carried out in every primary culture.
Cortisol concentrations were measured in the supernatant using a chemiluminescence immunoassay system (Immulite 2000XPi; Siemens DPC Inc., Los Angeles, Calif., USA). In addition, we carried out multi-steroid analysis by liquid chromatography/mass spectrometry (LC/MS-MS) to accurately quantify androstenedione, corticosterone, cortisol, 11-deoxycortisol, DHEA, DHEAS, progesterone, 17-hydroxyprogesterone, and testosterone. Concentrations that were tested on the LC/MS-MS were closest to 50% inhibition or maximal inhibition of cortisol as determined by the immunoassay. Steroids were quantified with respect to a calibration series, with internal standards. Steroids were quantified on a Xevo TQS LC-MS/MS (Waters Chromatography).
Statistical analysis was performed using Graphpad Prism 6.0 (Graphpad Software, San Diego, CA). Non-linear regression curve fitting program was used to calculate the half maximal inhibitory concentrations (IC50) on cortisol production. Effects of both compounds on the steroid profile were measured as absolute change compared to control and compared using the Student's t-test. When assessing differences between effects of both compounds, the percentage change was evaluated and compared in order to correct for differences in the vehicle treated control cells. Values of P<0.05 were considered statistically significant and data are presented as mean SEM.

[2] = test system: primary human corticotroph pituitary adenoma cultures; experiment: Cell amount in primary corticotroph pituitary adenoma cultures; type: cell-based; settings: corticotroph pituitary adenoma primary culture no. 2, 1 μM, 7 days
Procedure: as §1, with “ACTH-secreting corticotroph pituitary adenoma tissue from patients with Cushing's disease (n=2) was available after transsphenoidal surgery. Single-cell suspensions of the pituitary adenoma tissues were prepared as previously described in detail.” left out
As a measure of cell number, DNA concentrations were determined using the bisbenzimide fluorescent dye (Hoechst 33258, Sigma Aldrich), as previously described.

Compound | IC50 (HAC15 cells) [nM] | IC50 ([1]; EAS associated hyperplasia no. 1, ACTH (85 μM) stimulated condition, 3 days, read-out: IC50 inhibition of cortisol production) [nM] | IC50 ([1]; EAS associated hyperplasia no. 1, basal condition, 3 days, read-out: IC50 inhibition of cortisol production) [nM] | IC50 ([1]; EAS associated hyperplasia no. 2, basal condition, 3 days, read-out: IC50 inhibition of cortisol production) [nM] | IC50 ([1]; basal condition, EAS associated adrenal hyperplasia (n=2), read-out: mean IC50 cortisol production) [nM] | effect on cell number [2] | IC50 (HAC15 cells; Homo sapiens, 72 h) [nM] | IC50 ([1]; Homo sapiens, 72 h, EAS associated hyperplasia no. 1, ACTH (85 μM) stimulated condition, 3 days, read-out: IC50 inhibition of cortisol production) [nM] | IC50 ([1]; Homo sapiens, 72 h, EAS associated hyperplasia no. 1, basal condition, 3 days, read-out: IC50 inhibition of cortisol production) [nM] | IC50 ([1]; Homo sapiens, 72 h, EAS associated hyperplasia no. 2, basal condition, 3 days, read-out: IC50 inhibition of cortisol production) [nM]
CC(=O)N1CCN(c2ccc(OC[C@@H]3CO[C@@](Cn4ccnc4)(c4ccc(Cl)cc4Cl)O3)cc2)CC1 (relative stereo) [levoketoconazole, 2S,4R cis-1-acetyl-4-[4-[[2-(2,4-dichlorophenyl)-2-(1H-imidazol-1-ylmethyl)-1,3-dioxolan-4-yl]methoxyl]phenyl]piperazine] | 300 | 79.9 | 27.7 | 22 | 25.7 | significantly inhibited cell number |  |  |  | 
CC(=O)N1CCN(c2ccc(OCC3COC(Cn4ccnc4)(c4ccc(Cl)cc4Cl)O3)cc2)CC1 (racemic) [racemic ketoconazole, Ketoconazole] |  |  |  |  |  | not observed | 611 | 106 | 26.2 | 29.6
